What was measured:
human mGluR1 = human mGluR1 (Homo sapiens (Human), UniProt Q13255); test: mGluR1 antagonism, L-glutamate induced intracellular calcium increase (FLIPR) in CHO cells stably expressing human mGluR1; format: cell-based; conditions: for IC50: L-glutamate induced intracellular calcium, CHO cells expressing human mGluR1, FLIPR; for inhibition at 10 µM: CHO
human mGluR5a receptors = human mGluR5a receptors (Homo sapiens (Human), UniProt P41594); test: inhibition of glutamate-induced elevation of intracellular calcium in L(tk-) cells expressing human mGluR5a; format: cell-based; conditions: for IC50: glutamate-induced intracellular calcium elevation, L(tk-) cells expressing human mGluR5a, read-out: mGluR5 IC50; for inhibition at 10 µM: LTK, read-out: mGluR5 % inhibition at 10 μM
human mGluR5a receptors, sequence (P41594 other isoform, or with tags, fused parts or gaps): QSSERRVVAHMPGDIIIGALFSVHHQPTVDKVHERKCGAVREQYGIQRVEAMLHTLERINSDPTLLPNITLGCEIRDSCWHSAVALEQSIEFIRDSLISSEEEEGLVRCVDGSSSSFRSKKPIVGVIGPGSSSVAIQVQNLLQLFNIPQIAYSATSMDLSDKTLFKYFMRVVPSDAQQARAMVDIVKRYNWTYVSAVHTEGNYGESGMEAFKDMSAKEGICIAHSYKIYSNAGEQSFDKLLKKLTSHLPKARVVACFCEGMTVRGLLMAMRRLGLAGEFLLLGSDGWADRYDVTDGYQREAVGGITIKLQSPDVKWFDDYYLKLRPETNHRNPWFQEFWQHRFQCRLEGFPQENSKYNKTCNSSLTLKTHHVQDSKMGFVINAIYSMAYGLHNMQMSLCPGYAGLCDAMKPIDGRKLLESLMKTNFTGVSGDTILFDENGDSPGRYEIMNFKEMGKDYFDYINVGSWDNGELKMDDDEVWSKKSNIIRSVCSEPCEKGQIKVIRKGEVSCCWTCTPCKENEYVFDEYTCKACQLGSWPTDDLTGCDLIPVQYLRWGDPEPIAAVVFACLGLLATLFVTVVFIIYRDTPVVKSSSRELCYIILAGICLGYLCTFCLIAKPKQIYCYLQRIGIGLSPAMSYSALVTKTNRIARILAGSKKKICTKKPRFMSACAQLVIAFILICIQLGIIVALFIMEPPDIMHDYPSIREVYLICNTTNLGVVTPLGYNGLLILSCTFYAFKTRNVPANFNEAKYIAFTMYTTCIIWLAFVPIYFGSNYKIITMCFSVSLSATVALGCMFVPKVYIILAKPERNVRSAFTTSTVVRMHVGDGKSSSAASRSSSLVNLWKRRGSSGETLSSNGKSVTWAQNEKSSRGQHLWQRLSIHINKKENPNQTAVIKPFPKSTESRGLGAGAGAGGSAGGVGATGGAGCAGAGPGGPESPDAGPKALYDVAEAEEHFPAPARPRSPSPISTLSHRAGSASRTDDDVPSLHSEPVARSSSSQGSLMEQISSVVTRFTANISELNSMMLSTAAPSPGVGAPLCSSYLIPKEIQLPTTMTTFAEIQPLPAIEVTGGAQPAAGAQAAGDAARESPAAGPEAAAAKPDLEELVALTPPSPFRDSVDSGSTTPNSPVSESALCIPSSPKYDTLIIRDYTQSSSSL
Summary of the method: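 Compounds tested for inhibition of the glutamate-induced rise in intracellular calcium concentration in L(tk-) cells stably expressing human mGluR5a.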

human mGluR1, sequence (Q13255 19-1194): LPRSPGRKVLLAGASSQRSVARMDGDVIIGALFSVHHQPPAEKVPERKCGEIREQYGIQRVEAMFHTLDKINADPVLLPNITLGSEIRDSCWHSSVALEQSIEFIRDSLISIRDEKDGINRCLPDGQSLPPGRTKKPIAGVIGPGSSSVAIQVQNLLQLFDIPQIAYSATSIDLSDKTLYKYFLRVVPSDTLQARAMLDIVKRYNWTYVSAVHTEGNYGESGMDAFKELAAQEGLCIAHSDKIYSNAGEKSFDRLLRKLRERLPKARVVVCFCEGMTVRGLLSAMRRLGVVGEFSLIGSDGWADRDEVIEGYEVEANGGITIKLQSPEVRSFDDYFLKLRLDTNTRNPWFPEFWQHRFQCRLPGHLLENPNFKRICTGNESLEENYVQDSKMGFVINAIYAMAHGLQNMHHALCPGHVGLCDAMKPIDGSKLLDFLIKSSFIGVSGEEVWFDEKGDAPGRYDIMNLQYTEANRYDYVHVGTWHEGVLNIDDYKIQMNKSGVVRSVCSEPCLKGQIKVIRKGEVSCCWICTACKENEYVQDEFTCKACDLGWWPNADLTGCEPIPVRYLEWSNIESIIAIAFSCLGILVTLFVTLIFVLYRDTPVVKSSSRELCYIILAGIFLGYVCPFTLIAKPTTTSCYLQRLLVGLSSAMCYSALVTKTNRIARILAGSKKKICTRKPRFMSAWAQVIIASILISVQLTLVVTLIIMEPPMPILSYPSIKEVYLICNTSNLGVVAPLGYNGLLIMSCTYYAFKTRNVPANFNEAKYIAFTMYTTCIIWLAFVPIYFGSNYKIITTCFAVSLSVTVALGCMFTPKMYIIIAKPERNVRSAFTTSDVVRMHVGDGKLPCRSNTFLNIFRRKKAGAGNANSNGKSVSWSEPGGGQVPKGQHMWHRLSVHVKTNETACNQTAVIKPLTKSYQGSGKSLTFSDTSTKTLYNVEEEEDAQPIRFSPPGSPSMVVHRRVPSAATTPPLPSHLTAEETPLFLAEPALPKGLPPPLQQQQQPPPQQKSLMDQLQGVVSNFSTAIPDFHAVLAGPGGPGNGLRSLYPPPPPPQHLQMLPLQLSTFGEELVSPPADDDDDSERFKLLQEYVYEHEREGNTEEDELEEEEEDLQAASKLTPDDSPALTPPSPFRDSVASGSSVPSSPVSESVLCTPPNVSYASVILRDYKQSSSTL

| IC50 (human mGluR1) | IC50 (human mGluR5a receptors) | inhibition at 10 µM (human mGluR1) | inhibition at 10 µM (human mGluR5a receptors) | Structure (SMILES) |
| --- | --- | --- | --- | --- |
| > 2000 nM | 20 nM | – | – | O=C1CN=C(n2cnc(C3CC3)n2)C=C2c3cccc(-c4nccnc4F)c3CCN12 [Example 88b, 2-(3-cyclopropyl-1H-1,2,4-triazol-1-yl)-9-(3-fluoropyrazin-2-yl)-7,8-dihydro-[1,4]diazepino[7,1-a]isoquinolin-5(4H)-one] |
| > 10000 nM | 68 nM | – | – | COC1(c2cn(C3=NCC(=O)N4CCc5c(cccc5-c5ccc(F)nc5)C4=C3)cn2)CC1 [Example 106a, 9-(6-fluoropyridin-3-yl)-2-(4-(1-methoxycyclopropyl)-1H-imidazol-1-yl)-7,8-dihydro-[1,4]diazepino[7,1-a]isoquinolin-5(4H)-one] |
| > 2000 nM | 108 nM | – | – | O=C1CN=C(n2cnc(-c3ccncc3)c2)C=C2c3cccc(C4CC4)c3CCN12 [Example 123f, 9-cyclopropyl-2-(4-(pyridin-4-yl)-1H-imidazol-1-yl)-7,8-dihydro-[1,4]diazepino[7,1-a]isoquinolin-5(4H)-one] |
| 585 nM | 220 nM | – | – | COc1cccc(C2=NCC(=O)N3CCc4c(Cl)cccc4C3=C2)c1 [Example 3, 9-chloro-2-(3-methoxyphenyl)-7,8-dihydro-[1,4]diazepino[7,1-a]isoquinolin-5(4H)-one] |
| 5200 nM | 3900 nM | – | – | COc1cccc2c1CCN1C(=O)CN=C(c3ccnc(N(C)C)c3)C=C21 [Example 21, 2-(2-(dimethylamino)pyridin-4-yl)-9-methoxy-7,8-dihydro-[1,4]diazepino[7,1-a]isoquinolin-5(4H)-one] |
| 660 nM | 35 nM | – | – | CC(=O)c1cccc2c1CCN1C(=O)CN=C(n3cnc(C4CCC4)c3)C=C21 [Example 117, 9-acetyl-2-(4-cyclobutyl-1H-imidazol-1-yl)-7,8-dihydro-[1,4]diazepino[7,1-a]isoquinolin-5(4H)-one] |
| > 10000 nM | 5200 nM | – | – | Cn1ccc(C2=NCC(=O)N3CCc4c(C#N)cccc4C3=C2)n1 [Example 40, 2-(1-methyl-1H-pyrazol-3-yl)-5-oxo-4,5,7,8-tetrahydro-[1,4]diazepino[7,1-a]isoquinoline-9-carbonitrile] |
| > 2000 nM | 31 nM | – | – | O=C1CN=C(n2cnc(C3CC3)c2)C=C2c3cccc(-c4cncs4)c3CCN12 [Example 88d, 2-(4-cyclopropyl-1H-imidazol-1-yl)-9-(thiazol-5-yl)-7,8-dihydro-[1,4]diazepino[7,1-a]isoquinolin-5(4H)-one] |
| 2080 nM | 6 nM | – | – | CO[C@H](C)c1cn(C2=NCC(=O)N3CCc4c(ccc(F)c4C4CC4)C3=C2)cn1 [Example 99n, (R)-9-cyclopropyl-10-fluoro-2-(4-(1-methoxyethyl)-1H-imidazol-1-yl)-7,8-dihydro-[1,4]diazepino[7,1-a]isoquinolin-5(4H)-one] |
| > 2000 nM | 19 nM | – | – | O=C1CN=C(n2cnc(C3CC3)n2)C=C2c3cccc(-c4cnc(F)cn4)c3CCN12 [Example 136, 2-(3-cyclopropyl-1H-1,2,4-triazol-1-yl)-9-(5-fluoropyrazin-2-yl)-7,8-dihydro-[1,4]diazepino[7,1-a]isoquinolin-5(4H)-one] |
| > 10000 nM | 72 nM | – | – | Cc1cn(C2=NCC(=O)N3CCc4c(cccc4-c4cncs4)C3=C2)cn1 [Example 82, 2-(4-methyl-1H-imidazol-1-yl)-9-(thiazol-5-yl)-7,8-dihydro-[1,4]diazepino[7,1-a]isoquinolin-5(4H)-one] |
| > 10000 nM | 35 nM | – | – | Cn1ccc(C2=NCC(=O)N3CCc4c(cccc4N4CCOCC4)C3=C2)n1 [Example 24, 2-(1-methyl-1H-pyrazol-3-yl)-9-morpholino-7,8-dihydro-[1,4]diazepino[7,1-a]isoquinolin-5(4H)-one] |
| – | – | 44% | 42% | CCOc1cccc(C2=NCC(=O)N3C(=C2)c2cccc(OC)c2CC3C)c1 (stereo not drawn) [Example 15, 2-(3-ethoxyphenyl)-9-methoxy-7-methyl-7,8-dihydro-[1,4]diazepino[7,1-a]isoquinolin-5(4H)-one] |
| 890 nM | 7 nM | – | – | COCc1cn(C2=NCC(=O)N3CCc4c(C5=CCCC5)cccc4C3=C2)cn1 [Example 120, 9-(cyclopent-1-en-1-yl)-2-(4-(methoxymethyl)-1H-imidazol-1-yl)-7,8-dihydro-[1,4]diazepino[7,1-a]isoquinolin-5(4H)-one] |
| 490 nM | 14 nM | – | – | C=C(C)c1cccc2c1CCN1C(=O)CN=C(n3cnc(COC)c3)C=C21 [Example 121, 2-(4-(methoxymethyl)-1H-imidazol-1-yl)-9-(prop-1-en-2-yl)-7,8-dihydro-[1,4]diazepino[7,1-a]isoquinolin-5(4H)-one] |
| 150 nM | 180 nM | – | – | O=C1CN=C(c2cccs2)C=C2c3cccc(C(F)(F)F)c3CCN12 [Example 4, 2-(thiophen-2-yl)-9-(trifluoromethyl)-7,8-dihydro-[1,4]diazepino[7,1-a]isoquinolin-5(4H)-one] |
| 4800 nM | 80 nM | – | – | O=C1CN=C(c2ccco2)C=C2c3cccc(-c4ccncc4)c3CCN12 [Example 28, 2-(furan-2-yl)-9-(pyridin-4-yl)-7,8-dihydro-[1,4]diazepino[7,1-a]isoquinolin-5(4H)-one] |
| > 10000 nM | 1700 nM | – | – | CCOC(=O)c1cn(C2=NCC(=O)N3CCc4c(I)cccc4C3=C2)cn1 [Example 68, ethyl 1-(9-iodo-5-oxo-4,5,7,8-tetrahydro-[1,4]diazepino[7,1-a]isoquinolin-2-yl)-1H-imidazole-4-carboxylate] |
| > 10000 nM | 780 nM | – | – | COC(=O)c1cn(C2=NCC(=O)N3CCc4c(I)cccc4C3=C2)cn1 [Example 66, methyl 1-(9-iodo-5-oxo-4,5,7,8-tetrahydro-[1,4]diazepino[7,1-a]isoquinolin-2-yl)-1H-imidazole-4-carboxylate] |
| 3300 nM | 18 nM | – | – | Cc1nc(-c2cccc3c2CCN2C(=O)CN=C(n4cnc(C5CC5)c4)C=C32)co1 [Example 108, 2-(4-cyclopropyl-1H-imidazol-1-yl)-9-(2-methyloxazol-4-yl)-7,8-dihydro-[1,4]diazepino[7,1-a]isoquinolin-5(4H)-one] |
| 210 nM | 24 nM | – | – | COc1cccc2c1CCN1C(=O)CN=C(c3ccc(C)o3)C=C21 [Example 7, 9-methoxy-2-(5-methylfuran-2-yl)-7,8-dihydro-[1,4]diazepino[7,1-a]isoquinolin-5(4H)-one] |
| 3050 nM | 75 nM | – | – | COc1cc(C2=NCC(=O)N3CCc4c(Cl)cccc4C3=C2)ccn1 [Example 6, 9-chloro-2-(2-methoxypyridin-4-yl)-7,8-dihydro-[1,4]diazepino[7,1-a]isoquinolin-5(4H)-one] |
| 18200 nM | 220 nM | – | – | O=C1CN=C(n2cnc(C3CC3)c2)C=C2c3cccc(-c4ccnc(F)c4)c3CCN12 [Example 99g, 2-(4-cyclopropyl-1H-imidazol-1-yl)-9-(2-fluoropyridin-4-yl)-7,8-dihydro-[1,4]diazepino[7,1-a]isoquinolin-5(4H)-one] |
| 2300 nM | 35 nM | – | – | COc1cccc(C2=NCC(=O)N3CCc4c(C(C)=O)cccc4C3=C2)c1 [Example 48, 9-acetyl-2-(3-methoxyphenyl)-7,8-dihydro-[1,4]diazepino[7,1-a]isoquinolin-5(4H)-one] |
| 3400 nM | 32 nM | – | – | CC(C)n1cc(C2=NCC(=O)N3CCc4c(cccc4-n4cccn4)C3=C2)cn1 [Example 42, 2-(1-isopropyl-1H-pyrazol-4-yl)-9-(1H-pyrazol-1-yl)-7,8-dihydro-[1,4]diazepino[7,1-a]isoquinolin-5(4H)-one] |
| > 10000 nM | 410 nM | – | – | CC(=O)c1cccc2c1CCN1C(=O)CN=C(n3cnc(C)c3)C=C21 [Example 116, 9-acetyl-2-(4-methyl-1H-imidazol-1-yl)-7,8-dihydro-[1,4]diazepino[7,1-a]isoquinolin-5(4H)-one] |
| – | – | 0% | 24% | Cc1cc(-c2cccc3c2CCN2C(=O)CN=C(c4ccn(C)n4)C=C32)ccn1 [Example 56, 2-(1-methyl-1H-pyrazol-3-yl)-9-(2-methylpyridin-4-yl)-7,8-dihydro-[1,4]diazepino[7,1-a]isoquinolin-5(4H)-one] |
| 3500 nM | 2200 nM | – | – | COc1cccc2c1CCN1C(=O)CN=C(c3cccc(C(F)(F)F)c3)C=C21 [Example 16, 9-methoxy-2-(3-(trifluoromethyl)phenyl)-7,8-dihydro-[1,4]diazepino[7,1-a]isoquinolin-5(4H)-one] |

| Structure (SMILES) | IC50 (human mGluR1) | IC50 (human mGluR5a receptors) | inhibition at 10 µM (human mGluR1) | inhibition at 10 µM (human mGluR5a receptors) |
| --- | --- | --- | --- | --- |
| COC(=O)c1cccc2c1CCN1C(=O)CN=C(n3cnc(C4CC4)c3)C=C21 [Example 132, methyl 2-(4-cyclopropyl-1H-imidazol-1-yl)-5-oxo-4,5,7,8-tetrahydro-[1,4]diazepino[7,1-a]isoquinoline-9-carboxylate] | 2070 nM | 61 nM | – | – |
| CCc1cccc2c1CCN1C(=O)CN=C(c3cccc(OC)c3)C=C21 [Example 37, 9-ethyl-2-(3-methoxyphenyl)-7,8-dihydro-[1,4]diazepino[7,1-a]isoquinolin-5(4H)-one] | 2200 nM | 77 nM | – | – |
| CCc1cn(C2=NCC(=O)N3CCc4c(cccc4C4CCCO4)C3=C2)cn1 (racemic) [Example 111, 2-(4-ethyl-1H-imidazol-1-yl)-9-(tetrahydrofuran-2-yl)-7,8-dihydro-[1,4]diazepino[7,1-a]isoquinolin-5(4H)-one] | 9300 nM | 53 nM | – | – |
| COCc1cn(C2=NCC(=O)N3CCc4c(ccc(F)c4C4CC4)C3=C2)cn1 [Example 96-2, 9-cyclopropyl-10-fluoro-2-(4-(methoxymethyl)-1H-imidazol-1-yl)-7,8-dihydro-[1,4]diazepino[7,1-a]isoquinolin-5(4H)-one] | 289 nM | 2 nM | – | – |
| COCc1cn(C2=NCC(=O)N3CCc4c(cccc4C4CC4)C3=C2)cn1 [Example 96-1, 9-cyclopropyl-2-(4-(methoxymethyl)-1H-imidazol-1-yl)-7,8-dihydro-[1,4]diazepino[7,1-a]isoquinolin-5(4H)-one] | 540 nM | 6 nM | – | – |

— patent publication US8853203B2, “Diazepinone derivatives” (Novartis AG, priority 2012, dated 2014)
